{
  "source": "patent US20260232701A1",
  "about": "“[…] AN […] REUPTAKE INHIBITOR FOR USE IN THE TREATMENT OF TREAMENT- RESISTANT DEPRESSION” (Compass Pathfinder Limited, priority 2021, published 2026)",
  "key": {"[1]": {"test_system": "participants with treatment-resistant depression (TRD)", "test": "Montgomery-Asberg Depression Rating Scale (MADRS), Phase IIb open-label study of psilocybin adjunct to SSRI", "assay_type": "in vivo, human", "settings": "for MADRS total score, Mean (SD) / MADRS Remitters (MADRS total score ≤10) / MADRS Responders (≥50% decrease in MADRS total score from baseline) / MADRS total score, Change from baseline Mean (SD): 25 mg + SSRI, N = 19", "protocol": "The effectiveness of 25 mg COMP360 as an adjunctive therapy in participants with TRD was explored.\nThe study was a Phase IIb, international multicentre, fixed-dose, open-label study. The study population included adult men and women, 18 years of age or older, with TRD. […] The duration of the current episode must be at least 3 months but not more than 2 years.\nThe psilocybin administration session (V3, day 1) will last approximately 6 h and will be supported by a trained therapist. The study drug will be administered simultaneously to up to six participants. Blood pressure will be monitored continuously during the session. The COMP360 administration session may be video recorded for training and adherence monitoring. After the acute effects of psilocybin pass, participants will be evaluated for safety and accompanied home. On day 2 (V4), the day following psilocybin administration, participants will be seen in person for a safety check, assessment of suicidality and clinical and self-report assessments, and to discuss their experience during the psilocybin administration session. All sessions between the therapist and the participant may be audio recorded for adherence monitoring and quality assurance.\nThe primary objective of this study is to evaluate the efficacy of 25 mg of psilocybin adjunct to serotonergic antidepressants in TRD participants, as assessed by the change in the Montgomery-Asberg Depression Rating Scale (MADRS) total score from baseline. Baseline is defined as the assessment score obtained on Day −1. The primary time point is week 3.\n(§1) Additional objectives of this study are to assess the efficacy of psilocybin […] on the: • (a) proportion of subjects with response defined as a ≥50% decrease in MADRS total score from baseline to week 3. • (b) proportion of subjects with remission (defined as a MADRS total score ≤10) at week 3 post psilocybin administration. • (c) changes from baseline Clinical Global Impression-Severity scale (CGI-S) at week 3 post psilocybin administration."}, "[2]": {"test_system": "participants with treatment-resistant depression (TRD)", "test": "Clinical Global Impression - Improvement scale (CGI-I), same study", "assay_type": "in vivo, human", "settings": "25 mg + SSRI, N = 19"}, "[3]": {"test_system": "participants with treatment-resistant depression (TRD)", "test": "Clinical Global Impression - Severity scale (CGI-S), same study", "assay_type": "in vivo, human", "settings": "for CGI-S Responders: 25 mg + SSRI, N = 19", "protocol": "as §1"}, "[4]": {"test": "Solubility in water"}, "[5]": {"test_system": "participants with treatment-resistant depression (TRD)", "test": "Safety: treatment emergent adverse events (TEAE), same study", "assay_type": "in vivo, human", "text": "Another objective is to evaluate the safety and tolerability of psilocybin in subjects with TRD based on AEs, changes in vital signs, and suicidal ideation/behaviour (measured using the Columbia-Suicide Severity Rating Scale [C-SSRS]) score at all visits.\nThroughout the course of the study, all adverse events (AEs) will be monitored and recorded and will include the AE's description, start and end date, seriousness, severity, action taken, and relationship to the treatment. If AEs occur, the first concern will be the safety of the study subjects.\nAn AE can therefore be any unfavorable and unintended sign (including an abnormal laboratory finding, for example), symptom, or disease temporally associated with the use of a medicinal product, whether considered related to the medicinal product.\nAEs will be coded by Preferred Term (PT) using the Medical Dictionary for Regulatory Activities (MedDRA) classification. All reported AEs with onset or worsening after the administration of study medication will be included in the analysis. The incidence of AEs will be summarized by treatment group, and by severity and relationship to psilocybin. Serious AEs and AEs leading to withdrawal from the study will be tabulated.\nA TEAE is defined as any AE that has an onset on or after the dose of psilocybin, or any pre-existing condition that has worsened on or after the dose of psilocybin.\nThe incidence of TEAEs and treatment-related AEs will also be summarized by maximum severity and most-related relationship to psilocybin by MedDRA primary system organ class and PT. The summary will include the total number and percentage of subjects reporting an event."}, "[6]": {"settings": "week 3, single 25 mg dose adjunct to SSRI"}, "[7]": {"settings": "25 mg adjunct to SSRI, 19 patients"}, "[8]": {"settings": "on the day of dosing or the day after"}, "[9]": {"settings": "severity mild, 25 mg + SSRI, N = 19"}, "[10]": {"settings": "severity moderate, 25 mg + SSRI, N = 19"}},
  "data": [
    {"compound": "CN(C)CCc1c[nH]c2cccc(OP(=O)(O)O)c12", "note": "[COMP360, psilocybin]", "values": [
      {"measurement": "MADRS total score, Mean (SD)", "setting": "[1]; Baseline (before dosing)", "result": "31.7 (5.77)"},
      {"measurement": "MADRS Remitters (MADRS total score ≤10)", "setting": "[1]; Day 2", "result": "10 (52.6) n (%)"},
      {"measurement": "MADRS Responders (≥50% decrease in MADRS total score from baseline)", "setting": "[1]; Day 2", "result": "12 (63.2) n (%)"},
      {"measurement": "MADRS total score, Change from baseline Mean (SD)", "setting": "[1]; Day 2", "result": "−18.3 (11.85)"},
      {"measurement": "MADRS total score, Mean (SD)", "setting": "[1]; Day 2", "result": "13.4 (12.92)"},
      {"measurement": "MADRS Remitters (MADRS total score ≤10)", "setting": "[1]; Week 1", "result": "9 (47.4) n (%)"},
      {"measurement": "MADRS Responders (≥50% decrease in MADRS total score from baseline)", "setting": "[1]; Week 1", "result": "11 (57.9) n (%)"},
      {"measurement": "MADRS total score, Change from baseline Mean (SD)", "setting": "[1]; Week 1", "result": "−17.1 (11.29)"},
      {"measurement": "MADRS total score, Mean (SD)", "setting": "[1]; Week 1", "result": "14.6 (11.88)"},
      {"measurement": "MADRS Remitters (MADRS total score ≤10)", "setting": "[1]; Week 2", "result": "8 (42.1) n (%)"},
      {"measurement": "MADRS Responders (≥50% decrease in MADRS total score from baseline)", "setting": "[1]; Week 2", "result": "11 (57.9) n (%)"},
      {"measurement": "MADRS total score, Change from baseline Mean (SD)", "setting": "[1]; Week 2", "result": "−15.7 (12.02)"},
      {"measurement": "MADRS total score, Mean (SD)", "setting": "[1]; Week 2", "result": "16.0 (11.70)"},
      {"measurement": "MADRS Remitters (MADRS total score ≤10)", "setting": "[1]; Week 3", "result": "8 (42.1) n (%)"},
      {"measurement": "MADRS Responders (≥50% decrease in MADRS total score from baseline)", "setting": "[1]; Week 3", "result": "8 (42.1) n (%)"},
      {"measurement": "MADRS total score, Change from baseline Mean (SD)", "setting": "[1]; Week 3", "result": "−14.9 (11.97)"},
      {"measurement": "MADRS total score, Mean (SD)", "setting": "[1]; Week 3", "result": "16.8 (11.62)"},
      {"measurement": "proportion of participants who were MADRS remitters", "setting": "[1]; by week 3, single 25 mg dose adjunct to SSRI", "result": "~ 42%"},
      {"measurement": "proportion of participants who were MADRS responders", "setting": "[1]; [6]", "result": "~ 42%"},
      {"measurement": "average reduction in MADRS total score from baseline", "setting": "[1]; week 3, single 25 mg dose adjunct to SSRI, 19 patients", "result": 14.9},
      {"measurement": "CGI-I Responders", "setting": "[2]; Day 2", "result": "11 (57.9) n (%)"},
      {"measurement": "CGI-I Responders", "setting": "[2]; Week 1", "result": "12 (63.2) n (%)"},
      {"measurement": "CGI-I Responders", "setting": "[2]; Week 2", "result": "8 (42.1) n (%)"},
      {"measurement": "CGI-I Responders", "setting": "[2]; Week 3", "result": "7 (36.8) n (%)"},
      {"measurement": "CGI-S Responders", "setting": "[3]; Day 2", "result": "8 (42.1) n (%)"},
      {"measurement": "CGI-S Responders", "setting": "[3]; Week 1", "result": "12 (63.2) n (%)"},
      {"measurement": "CGI-S Responders", "setting": "[3]; Week 2", "result": "11 (57.9) n (%)"},
      {"measurement": "CGI-S Responders", "setting": "[3]; Week 3", "result": "10 (52.6) n (%)"},
      {"measurement": "average CGI-S score", "setting": "[3]; baseline (\"moderately ill\")", "result": 4},
      {"measurement": "average CGI-S score", "setting": "[3]; week 3 (\"mildly ill\"), single 25 mg dose adjunct to SSRI", "result": 3},
      {"measurement": "proportion of participants who were CGI-S responders", "setting": "[3]; [6]", "result": 52.6, "unit": "%"},
      {"measurement": "solubility", "setting": "[4]", "result": "~15", "unit": "mg/mL"},
      {"measurement": "TEAEs classed as serious (TESAEs)", "setting": "[5]; [7]", "result": "no TEAEs classed as serious"},
      {"measurement": "TEAEs related to suicidal ideation or behaviour or intentional self-injury", "setting": "[5]; [7]", "result": "no TEAEs related to suicidal ideation or behaviour or intentional self-injury"},
      {"measurement": "tolerability", "setting": "[5]; [7]", "result": "generally well tolerated"},
      {"measurement": "resolution of headache TEAE", "setting": "[5]; all cases", "result": "all cases resolved in one or two days"},
      {"measurement": "most common TEAE headache, events", "setting": "[5]; [8]", "result": 6, "unit": "events"},
      {"measurement": "most common TEAE headache, participants", "setting": "[5]; [8]", "result": 6, "unit": "participants"},
      {"measurement": "TEAE Blood pressure increase", "setting": "[5]; [9]", "result": "1 (5.3) n (%)"},
      {"measurement": "TEAE Diarrhoea", "setting": "[5]; [9]", "result": "1 (5.3) n (%)"},
      {"measurement": "TEAE Dizziness", "setting": "[5]; [9]", "result": "1 (5.3) n (%)"},
      {"measurement": "TEAE Dry mouth", "setting": "[5]; [9]", "result": "1 (5.3) n (%)"},
      {"measurement": "TEAE Fall", "setting": "[5]; [9]", "result": "1 (5.3) n (%)"},
      {"measurement": "TEAE Headache", "setting": "[5]; [9]", "result": "5 (26.3) n (%)"},
      {"measurement": "TEAE Palpitations", "setting": "[5]; [9]", "result": "1 (5.3) n (%)"},
      {"measurement": "TEAE Skin abrasion", "setting": "[5]; [9]", "result": "1 (5.3) n (%)"},
      {"measurement": "TEAE Vertigo", "setting": "[5]; [9]", "result": "1 (5.3) n (%)"},
      {"measurement": "TEAE Depression", "setting": "[5]; [10]", "result": "1 (5.3) n (%)"},
      {"measurement": "TEAE Headache", "setting": "[5]; [10]", "result": "1 (5.3) n (%)"},
      {"measurement": "TEAE Hypertension", "setting": "[5]; severity severe, 25 mg + SSRI, N = 19", "result": "1 (5.3) n (%)"}
    ]}
  ]
}
